In experiment [1] the target is T1, human GLP-1R (Homo sapiens, UniProt P43220, G168S).
T1 construct: expressed in transfected cells
In words: CHO GLP-1R Clone H6 - Assay 1 (HTRF cAMP agonist assay). It counts as cell-based. Conditions: for EC50: CHO Clone H6, high GLP-1R density, cAMP, geometric mean; for Emax / Assay 1 Emax (%): CHO Clone H6, relative to saturating full agonist GLP-1 7-36 (1 μM), arithmetic mean. The method, then: GLP-1R-mediated agonist activity was determined with a cell-based functional assay utilizing an HTRF (Homogeneous Time-Resolved Fluorescence) cAMP detection kit (cAMP HI Range Assay Kit; CisBio cat #62AM6PEJ) that measures cAMP levels in the cell. The method is a competitive immunoassay between native cAMP produced by the cells and exogenous cAMP labeled with the dye d2, The tracer binding is visualized by a mAb anti-cAMP labeled with Cryptate. The specific signal (i.e. energy transfer) is inversely proportional to the concentration of cAMP in either standard or experimental sample.
The human GLP-1R coding sequence (NCBI Reference Sequence NP_002053.3, including naturally-occurring variant Gly168Ser) was subcloned into pcDNA3 (Invitrogen) and a cell line stably expressing the receptor was isolated (designated Clone H6).
A 1 mL sample of the cell suspension in growth media was counted on a Becton Dickinson ViCell to determine cell viability and cell count per mL. The remaining cell suspension was then adjusted with growth media to deliver 2000 viable cells per well using a Matrix Combi Multidrop reagent dispenser, and the cells were dispensed into a white 384 well tissue culture treated assay plate (Corning 3570). The assay plate was then incubated for 48 hours at 37° C. in a humidified environment in 5% carbon dioxide.
Varying concentrations of each compound to be tested (in DMSO) were diluted in assay buffer (HBSS with Calcium/Magnesium (Lonza/BioWhittaker cat #10-527F)/0.1% BSA (Sigma Aldrich cat #A7409-1L)/20 mM HEPES (Lonza/BioWhittaker cat #17-737E) containing 100 μM 3-isobutyl-1-methylxanthin (IBMX; Sigma cat #15879). The final DMSO concentration is 1%.
After 48 hours, the growth media was removed from the assay plate wells, and the cells were treated with 20 μL of the serially diluted compound in assay buffer for 30 minutes at 37° C. in a humidified environment in 5% carbon dioxide. Following the 30 minute incubation, 10 μL of labeled d2 cAMP and 10 μL of anti-cAMP antibody (both diluted 1:20 in cell lysis buffer; as described in the manufacturer's assay protocol) were added to each well of the assay plate. The plates were then incubated at room temperature and after 60 minutes, changes in the HTRF signal were read with an Envision 2104 multi-label plate reader using excitation of 330 nm and emissions of 615 and 665 nm. Raw data were converted to nM cAMP by interpolation from a cAMP standard curve (as described in the manufacturer's assay protocol) and the percent effect was determined relative to a saturating concentration of the full agonist GLP-17-36 (1 μM) included on each plate. EC50 determinations were made from agonist dose-response curves analyzed with a curve fitting program using a 4-parameter logistic dose response equation.
For orientation: In TR-FRET formats the signal depends on donor and acceptor labels being close together.

In experiment [2] the target is T2, human GLP-1R (Homo sapiens, UniProt P43220, L260F).
T2 construct: expressed in transfected cells; host or cells: CHO Flp-In T-REx, clonal line C6 (pcDNA5-FRT-TO)
T2 sequence (P43220 24-463 L260F): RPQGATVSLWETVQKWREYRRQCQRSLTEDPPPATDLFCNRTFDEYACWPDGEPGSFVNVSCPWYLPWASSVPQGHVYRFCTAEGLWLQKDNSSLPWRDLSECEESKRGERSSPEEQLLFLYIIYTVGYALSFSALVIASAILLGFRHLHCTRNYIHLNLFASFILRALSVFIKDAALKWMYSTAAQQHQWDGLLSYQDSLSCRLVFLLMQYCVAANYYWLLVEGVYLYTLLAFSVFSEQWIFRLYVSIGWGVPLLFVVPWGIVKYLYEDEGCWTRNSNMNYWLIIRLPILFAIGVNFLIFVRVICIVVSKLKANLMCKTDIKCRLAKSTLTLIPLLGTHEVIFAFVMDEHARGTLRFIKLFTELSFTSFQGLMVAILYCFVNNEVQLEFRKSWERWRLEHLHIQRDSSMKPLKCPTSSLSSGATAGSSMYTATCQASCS
The experiment can be described thus: CHO GLP-1R Clone C6 - Assay 2 (HTRF cAMP agonist assay). Type of experiment: cell-based. Conditions: for EC50: CHO clone C6, low GLP-1R density, cAMP, geometric mean. The method, then: GLP-1R-mediated agonist activity was determined with a cell-based functional assay utilizing an HTRF (Homogeneous Time-Resolved Fluorescence) cAMP detection kit (cAMP HI Range Assay Kit; Cis Bio cat #62AM6PEJ) that measures cAMP levels in the cell. The method is a competitive immunoassay between native cAMP produced by the cells and exogenous cAMP labeled with the dye d2. The tracer binding is visualized by a mAb anti-cAMP labeled with Cryptate. The specific signal (i.e. energy transfer) is inversely proportional to the concentration of cAMP in either a standard or an experimental sample.
The human GLP-1R coding sequence (NCBI Reference Sequence NP_002053.3, including naturally-occurring variant Leu260Phe) was subcloned into pcDNA5-FRT-TO and a clonal CHO cell line stably expressing a low receptor density was isolated using the Flp-In™ T-Rex™ System, as described by the manufacturer (ThermoFisher).
A 1 mL sample of the cell suspension in growth media was counted on a Becton Dickinson ViCell to determine cell viability and cell count per mL. The remaining cell suspension was then adjusted with growth media to deliver 1600 viable cells per well using a Matrix Combi Multidrop reagent dispenser, and the cells were dispensed into a white 384 well tissue culture treated assay plate (Corning 3570). The assay plate was then incubated for 48 h at 37° C. in a humidified environment (95% O2, 5% CO2)
Varying concentrations of each compound to be tested (in DMSO) were diluted in assay buffer [HBSS with Calcium/Magnesium (Lonza/BioWhittaker cat #10-527F)/0.1% BSA (Sigma Aldrich cat #A7409-1L)/20 mM HEPES (Lonza/BioWhittaker cat #17-737E)] containing 100 μM 3-isobutyl-1-methylxanthin (IBMX; Sigma cat #15879). The final DMSO concentration in the compound/assay buffer mixture is 1%.
After 48 h, the growth media was removed from the assay plate wells, and the cells were treated with 20 μL of the serially diluted compound in assay buffer for 30 min at 37° C. in a humidified environment (95% O2, 5% CO2). Following the 30 min incubation, 10 μL of labeled d2 cAMP and 10 μL of anti-cAMP antibody (both diluted 1:20 in cell lysis buffer; as described in the manufacturer's assay protocol) were added to each well of the assay plate. The plates were then incubated at room temperature and after 60 minutes, changes in the HTRF signal were read with an Envision 2104 multi-label plate reader using excitation of 330 nm and emissions of 615 and 665 nm. Raw data were converted to nM cAMP by interpolation from a cAMP standard curve (as described in the manufacturer's assay protocol) and the percent effect was determined relative to a saturating concentration of the full agonist GLP-1 (1 μM) included on each plate. EC50 determinations were made from agonist dose response curves analyzed with a curve fitting program using a 4-parameter logistic dose response equation.

Where [3] appears, read: CHO clone C6, relative to saturating full agonist GLP-1 (1 μM), arithmetic mean.

SMILES strings stand for the structures. Where a name gives a salt, the structure may show the parent alone.

T1 sequence (P43220 24-463 G168S): as the sequence (P43220 24-463 L260F) above, with G145S, F237L counted along it

Regarding `N#Cc1ccc(COc2nc(N3CCC4(CC3)CC4c3nc4ccc(C(=O)O)cc4n3C[C@@H]3CCO3)c(F)cc2F)c(F)c1` (mixture of isomers) [Example 56, Ammonium 2-(6-{6-[(4-cyano-2-fluorobenzyl)oxy]-3,5-difluoropyridin-2-yl}-6-azaspiro[2.5]oct-1-yl)-1-[(2S)-oxetan-2-ylmethyl]-1H-benzimidazole-6-carboxylate], the figures for the EC50 at human GLP-1R [1] and on human GLP-1R [2] were 0.38 nM and 4.2 nM, respectively. Also, the values for the Emax at human GLP-1R [1] and on human GLP-1R [2] (setting [3]) were 80% and 90%, respectively.
Regarding `N#Cc1ccc(COc2cccc(N3CCC4(CC3)CC4c3nc4ccc(C(=O)O)cc4n3CC3CCO3)n2)c(F)c1` (single isomer, unassigned) [Example 35], the EC50 on human GLP-1R [1] was determined as 330 nM; at human GLP-1R [2], 13000 nM. Further, the Emax stood at 85% at human GLP-1R [1] and 100% on human GLP-1R [2] (setting [3]).
`N#Cc1ccc(COc2cccc(N3CCC4(CC3)CC4c3nc4ccc(C(=O)O)cc4n3CC3CCO3)n2)c(F)c1` (single isomer, unassigned) [Example 36]: on human GLP-1R [1], it took 0.48 nM to reach a half-maximal effect (EC50) and the “Assay 1 Emax (%)” value stood at 83%. Also, the half-maximal effective concentration (EC50) at human GLP-1R [2] is 15 nM. The “Assay 2 Emax (%)” value on human GLP-1R [2] (setting [3]) came to 90%.
In the case of `O=C(O)c1ccc2nc(C3CC34CCN(c3nc(OCc5ccc(Cl)cc5F)ncc3F)CC4)n(CCn3cncn3)c2c1` (single isomer, unassigned) [Example 41, 2-(6-{2-[(4-chloro-2-fluorobenzyl)oxy]-5-fluoropyrimidin-4-yl}-6-azaspiro[2.5]oct-1-yl)-1-[2-(1H-1,2,4-triazol-1-yl)ethyl]-1H-benzimidazole-6-carboxylic acid, trifluoroacetate salt, from P7], the EC50 at human GLP-1R [1] stood at 7.6 nM; at human GLP-1R [2] it was 130 nM. Besides, the maximal effect (Emax) at human GLP-1R [1] came to 84%; on human GLP-1R [2] (setting [3]), 96%.
For `COCCn1c(C2CC23CCN(c2cccc(OCc4ccc(Cl)cc4F)n2)CC3)nc2ncc(C(=O)O)cc21` (single isomer, unassigned) [Example 49, 2-(6-{6-[(4-chloro-2-fluorobenzyl)oxy]pyridin-2-yl}-6-azaspiro[2.5]oct-1-yl)-1-(2-methoxyethyl)-1H-imidazo[4,5-b]pyridine-6-carboxylic acid, ENT-2], the figures for the concentration giving a half-maximal response (EC50) on human GLP-1R [1] and at human GLP-1R [2] were 18 nM and 290 nM, respectively. Also, the “Assay 1 Emax (%)” value on human GLP-1R [1] is reported as 75%. In addition, the Emax on human GLP-1R [2] (setting [3]) is 87%.
Regarding `O=C(O)c1ccc2nc(C3CC34CCN(c3ncc(F)c(OCc5ccc(Cl)cc5F)n3)CC4)n(CC3CCO3)c2c1` (single isomer, unassigned) [Example 50], the EC50 at human GLP-1R [1] stood at 0.71 nM; at human GLP-1R [2], 19 nM. Besides, the figures for the Emax at human GLP-1R [1] and on human GLP-1R [2] (setting [3]) were 78% and 80%, respectively.
As to `O=C(O)c1ccc2nc(C3CC34CCN(c3ncc(F)c(OCc5ccc(Cl)cc5F)n3)CC4)n(CC3CCO3)c2c1` (single isomer, unassigned) [Example 51], at human GLP-1R [1], it took 470 nM to reach a half-maximal effect (EC50) and the “Assay 1 Emax (%)” value worked out at 71%. For the same molecule, at human GLP-1R [2], the EC50 was greater than 20000 nM.
In the case of `N#Cc1ccc(COc2ccc(F)c(N3CCC4(CC3)CC4c3nc4ccc(C(=O)O)cc4n3CC3CCO3)n2)c(F)c1` (single isomer, unassigned) [Example 54], the EC50 on human GLP-1R [1] turned out to be 63 nM; at human GLP-1R [2], 3400 nM. For the same molecule, the Emax at human GLP-1R [1] stood at 76%; at human GLP-1R [2] (setting [3]), 93%.
At human GLP-1R [2], `N#Cc1ccc(COc2ncccc2C2CCN(Cc3nc4ccc(C(=O)O)cc4n3C[C@@H]3CCO3)CC2)c(F)c1` [Example 5, 2-[(4-{2-[(4-cyano-2-fluorobenzyl)oxy]pyridin-3-yl}piperidin-1-yl)methyl]-1-[(2S)-oxetan-2-ylmethyl]-1H-benzimidazole-6-carboxylic acid] showed an EC50 of 42 nM. Moreover, at human GLP-1R [2] (setting [3]), the Emax worked out at 95%.
For `Cn1nncc1Cn1c(CN2CCC(c3cccnc3OCc3ccc(Cl)cc3F)CC2)nc2ccc(C(=O)O)cc21` [Example 10, 2-[(4-{2-[(4-chloro-2-fluorobenzyl)oxy]pyridin-3-yl}piperidin-1-yl)methyl]-1-[(1-methyl-1H-1,2,3-triazol-5-yl)methyl]-1H-benzimidazole-6-carboxylic acid, trifluoroacetate salt] the same measures were 220 nM and 100%.
Taken in the same sequence, the figures for `N#Cc1ccc(COc2ncccc2C2CCN(Cc3nc4ccc(C(=O)O)nc4n3C[C@@H]3CCO3)CC2)c(F)c1` [Example 18, ammonium 2-[(4-{2-[(4-cyano-2-fluorobenzyl)oxy]pyridin-3-yl}piperidin-1-yl)methyl]-3-[(2S)-oxetan-2-ylmethyl]-3H-imidazo[4,5-b]pyridine-5-carboxylate] were 59 nM and 100%.
Taken in the same sequence, the figures for `N#Cc1ccc(COc2nccnc2C2CCN(Cc3nc4ccc(C(=O)O)cc4n3C[C@@H]3CCO3)CC2)c(F)c1` [Example 28, ammonium 2-[(4-{3-[(4-cyano-2-fluorobenzyl)oxy]pyrazin-2-yl}piperidin-1-yl)methyl]-1-[(2S)-oxetan-2-ylmethyl]-1H-benzimidazole-6-carboxylate] were 150 nM and 98%.
With `CCn1cncc1Cn1c(CN2CCC(c3ccnc(OCc4ccc(Cl)cc4F)n3)CC2)nc2ccc(C(=O)O)cc21` [Example 63, 2-[(4-{2-[(4-chloro-2-fluorobenzyl)oxy]pyrimidin-4-yl}piperidin-1-yl)methyl]-1-[(1-ethyl-1H-imidazol-5-yl)methyl]-1H-benzimidazole-6-carboxylic acid], at human GLP-1R [2], the EC50 turned out to be 10 nM. On human GLP-1R [2] (setting [3]), this molecule showed an Emax of 97%.
On human GLP-1R [1], `C[C@H]1CN(c2nc(OCc3ccc(C#N)cc3)ncc2F)CCN1Cc1nc2ccc(C(=O)O)cc2n1CCC(F)(F)F` [Example 70, ammonium 2-{[(2S)-4-{2-[(4-cyanobenzyl)oxy]-5-fluoropyrimidin-4-yl}-2-methylpiperazin-1-yl]methyl}-1-(3,3,3-trifluoropropyl)-1H-benzimidazole-6-carboxylate] came in with an EC50 of 700 nM and an Emax of 79%.

For orientation: EC50 means the midpoint of the concentration-response curve. What is called Emax is the maximal effect, on the per cent scale that the assay sets.

Source of the values: patent US12331041B2, “GLP-1 receptor agonists and uses thereof” (Pfizer Inc., priority 2018, dated 2025).
